Experimental findings from US5674905A, “Bicyclooctane and bicycloheptane derivatives” (James Black Foundation Limited, priority 1992, dated 1997) are described below.

The target of one assay is T1, CCKA (Cavia porcellus, UniProt Q63931).
T1 construct: The pancreatata were removed from male guinea-pigs (200-300 g; Dunkin Hartley); from tissue; host or cells: pancreas membranes of male Dunkin Hartley guinea-pigs
T1 sequence (Q63931 1-430): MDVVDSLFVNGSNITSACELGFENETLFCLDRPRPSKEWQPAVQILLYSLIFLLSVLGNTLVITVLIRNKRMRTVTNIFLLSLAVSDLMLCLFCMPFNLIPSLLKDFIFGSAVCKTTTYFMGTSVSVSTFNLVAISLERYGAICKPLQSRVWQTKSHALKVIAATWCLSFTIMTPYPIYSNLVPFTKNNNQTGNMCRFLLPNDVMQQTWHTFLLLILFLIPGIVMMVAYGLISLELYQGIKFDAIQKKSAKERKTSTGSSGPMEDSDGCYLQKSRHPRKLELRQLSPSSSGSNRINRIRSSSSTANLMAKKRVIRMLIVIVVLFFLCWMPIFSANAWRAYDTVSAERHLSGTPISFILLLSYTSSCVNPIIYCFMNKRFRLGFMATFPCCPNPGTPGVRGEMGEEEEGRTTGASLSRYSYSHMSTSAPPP
The experiment in a line: CCKA binding assay in guinea-pig pancreas membranes ([125I]-CCK8(S)). To be noted: 150 minutes at 21±3°; for Ki: 0.375 μM PD134,308, read-out: CCKA pKi (converted); for CCKA pKi: 0.375 μM PD134,308. How it is done: The compounds of the examples were also tested in a CCKA binding assay as follows:
The pancreatata were removed from male guinea-pigs (200-300 g; Dunkin Hartley) and placed in ice-cold HEPES buffer (pH 7.2 @ 21±3°). The pancreatata were homogenised in 40 ml ice-cold HEPES buffer using a polytron (Brinkmann, PT10, setting 10) 4×1 second. The homogenate was centrifuged at 39,800 g for 15 min at 4°. The supernatant was discarded and the pellet re-suspended using a Teflon-in-glass homogeniser in 20 volumes of fresh buffer and re-centrifuged as above. The final pellet was re-suspended using a Teflon-in-glass homogeniser to a tissue concentration of 1 mg.ml^-1 (original wet weight), and filtered through 500 μm pore-size Nytex mesh.
The membranes (400 μl; containing 0.375 μM PD134,308) are incubated for 150 minutes at 21±3° in a final volume of 0.5 ml with HEPES buffer containing [^125 I]-CCK8 (S)(50 μl; pM) and competing compound. Total and non-specific binding of [^125 I]-CCK8 (S) are defined using 50 μl of buffer and 50 μl of 100 nM L-364,718 respectively. The assay is terminated by rapid filtration through pre-soaked Whatman GF/B filters using a Brandell Cell Harvester. The filters were washed (3×3 ml) with ice-cold 50 mM Tris HCl (pH 7.4 at 4°) and bound radioactivity is determined by counting (1 min) in a gamma counter.

A further assay has as its target T2, CCKB receptor (Mus musculus, UniProt P56481).
T2 construct: The cortex was dissected, weighed and homogenised in 40 ml ice-cold buffer; from tissue; host or cells: cerebral cortex membranes of male CD1 mice (Charles River)
T2 sequence (P56481 1-453): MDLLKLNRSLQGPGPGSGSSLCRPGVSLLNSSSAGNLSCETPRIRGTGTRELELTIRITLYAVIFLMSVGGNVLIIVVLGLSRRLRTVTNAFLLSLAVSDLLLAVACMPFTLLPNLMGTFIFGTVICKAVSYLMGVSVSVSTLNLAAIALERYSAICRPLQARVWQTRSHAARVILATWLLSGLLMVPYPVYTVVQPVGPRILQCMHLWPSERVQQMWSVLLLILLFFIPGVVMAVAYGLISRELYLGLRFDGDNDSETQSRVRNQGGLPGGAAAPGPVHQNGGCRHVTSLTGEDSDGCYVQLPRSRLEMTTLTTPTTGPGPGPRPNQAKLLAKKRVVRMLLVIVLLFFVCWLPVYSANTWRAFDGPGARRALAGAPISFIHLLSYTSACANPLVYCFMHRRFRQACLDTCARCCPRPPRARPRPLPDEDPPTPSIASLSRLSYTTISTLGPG
Description: radioligand binding assay at the CCKB receptor in mouse cortical membranes ([125I]-CCK8S). To be noted: 150 min at 21±3°; for Ki: read-out: CCKB pKi (converted). Put shortly:
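Competition binding on cortical membranes from male CD1 mice in pH 7.2 HEPES buffer with bacitracin, using [125I]-CCK8S (200 pM) and test compound, 150 min at 21±3°. Non-specific binding defined with L-365,260 ([…]). Bound radioactivity collected by filtration and gamma-counted.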

A further assay addresses T3, gastrin receptors (Rattus norvegicus, UniProt P30553).
T3 construct: from tissue; host or cells: isolated perfused whole stomach of immature rats (33-50 g, ca. 21 days old)
T3 sequence (P30553 1-452): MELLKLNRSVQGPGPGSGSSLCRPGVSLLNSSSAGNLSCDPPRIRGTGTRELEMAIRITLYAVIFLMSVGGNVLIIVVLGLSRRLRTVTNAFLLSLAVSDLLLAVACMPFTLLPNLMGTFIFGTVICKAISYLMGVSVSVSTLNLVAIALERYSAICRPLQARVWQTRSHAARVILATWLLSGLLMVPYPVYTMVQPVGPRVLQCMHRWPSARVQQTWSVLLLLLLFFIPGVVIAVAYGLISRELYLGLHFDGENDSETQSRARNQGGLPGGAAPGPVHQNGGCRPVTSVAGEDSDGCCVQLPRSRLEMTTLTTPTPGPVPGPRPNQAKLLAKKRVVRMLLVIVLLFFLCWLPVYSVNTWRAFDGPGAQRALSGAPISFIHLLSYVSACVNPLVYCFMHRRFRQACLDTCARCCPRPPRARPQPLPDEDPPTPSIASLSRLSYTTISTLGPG
Description: gastrin antagonist activity in an immature rat stomach assay (pentagastrin-stimulated acid secretion). To be noted: isolated immature rat stomach, cumulative pentagastrin dose-response curves; for Kb: read-out: Gastrin pKB (converted). How it is done:
The compounds of the examples were also tested for gastrin antagonist activity in an immature rat stomach assay. The procedure was as follows:
The oesophagus of immature rats (33-50 g, ca. 21 days old) was ligated at the level of the cardiac sphincter and the duodenal sphincter was cannulated. The stomach was excised and flushed with ca. 1 ml of unbuffered physiological saline solution. The fundus was punctured and cannulated. A further 4-5 ml of unbuffered solution was flushed through the stomach to ensure the preparation was not leaking. The stomach was lowered into a jacketed organ bath containing 40 ml of buffered solution containing 3×10^-8 M 5-methyl-furmethide, maintained at 37° and gassed vigorously with 95% O2 /5% CO2. The stomach was continuously perfused at a rate of 1 ml min^-1 with unbuffered solution gassed with 100% O2 with the perfusate passing over an internally referenced pH-electrode fixed 12 cm above the stomach.
After 120 min of stabilisation the drugs were added directly to the serosal solution in the organ bath and after a further 60 min cumulative pentagastrin dose-response curves were started. Changes in acid secretion were monitored and the curves analysed according to Black et. al., Br. J. Pharmacol., 1985, 86, 581.

Turning to `C[C@H](NC(=O)[C@@H]1CCCN1C(=O)C1C2CCC(c3ccccc32)C1C(=O)NCC12CC3CC(CC(C3)C1)C2)C(=O)O` (stereo partly drawn) [Example 43, cis-exo-7-(2S-(1S-carboxyethylaminocarbonyl)-pyrrolidinocarbonyl)-8-(1-adamantylmethylaminocarbonyl)-2,3-benzobicyclo[2.2.2]octane], the Ki on CCKA is 10 µM; on CCKB receptor, 2 µM.
On to `O=C(NCC12CC3CC(CC(C3)C1)C2)C1C2C=CC(c3ccccc32)C1C(=O)N[C@H](Cc1c[nH]c2ccccc12)C(=O)O` (single isomer, unassigned) [Example 18, exo-cis-7-(2-R-(3-indolyl)-1-carboxy-ethylaminocarbonyl)-8-(1-adamantylmethylaminocarbonyl)-5,6-benzobicyclo[2.2.2]oct-2-ene], for which the Ki was 1 µM at CCKA and 0.794 µM on CCKB receptor. Besides, at gastrin receptors, the Kb was 1 µM.
As for “(±)-endo-cis-8-(1-adamantylmethylaminocarbonyl)-2-(±)-benzyl-5,6-benzobicyclo[2.2.2]octane-7-carboxylic acid [Example 36]”, at CCKA, the “CCKA pKi” value is 5.4. In addition, the “CCKB pKi” value at CCKB receptor is recorded as 5.8.
`O=C1CC2c3ccccc3C1C(C(=O)N1CCC[C@@H]1C(=O)O)C2C(=O)NCC12CC3CC(CC(C3)C1)C2` (single isomer, unassigned) [Example 34, endo-cis-7-(2-R-carboxy-pyrrolidinocarbonyl)-8-(1-adamantylmethylaminocarbonyl)-2-oxo-5,6-benzobicyclo[2.2.2]octane]: the Ki at CCKA is 7.94 µM; at CCKB receptor, 6.31 µM.
Regarding “endo-cis-7-(2-R-carboxy-pyrrolidinocarbonyl)-8-(1-adamantylmethylaminocarbonyl)-2-oxo-5,6-benzobicyclo[2.2.2]octane [Example 35]”, on CCKA, the “CCKA pKi” value was 4.8. Also, on CCKB receptor, the “CCKB pKi” value turned out to be 5.0.
On to `O=C(O)CNC(=O)[C@H]1CCCN1C(=O)C1C2c3ccccc3C(c3cc4ccccc4cc32)C1C(=O)NCC12CC3CC(CC(C3)C1)C2` (single isomer, unassigned) [Example 37, cis-7-(2R-carboxymethylaminocarbonyl-pyrrolidinocarbonyl)-8-(1-adamantylmethylaminocarbonyl)-2,3-benzo-5,6-(2,3-naphtho)bicyclo[2.2.2]octane], for which the Ki on CCKA was 3.16 µM; on CCKB receptor, 0.158 µM. Further, the Kb at gastrin receptors is 0.501 µM.
On the same counts, the results for `O=C(O)CNC(=O)[C@H]1CCCN1C(=O)C1C2c3ccccc3C(c3cc4ccccc4cc32)C1C(=O)NCC12CC3CC(CC(C3)C1)C2` (single isomer, unassigned) [Example 38, cis-7-(2R-carboxymethylaminocarbonyl-pyrrolidinocarbonyl)-8-(1-adamantylmethylaminocarbonyl)-2,3-benzo-5,6-(2,3-naphtho)bicyclo[2.2.2]octane] are 7.94 µM, 0.251 µM and 0.631 µM.
`C[C@@H](NC(=O)[C@H]1CCCN1C(=O)C1C2CCC(c3ccccc32)C1C(=O)NCC12CC3CC(CC(C3)C1)C2)C(=O)O` (stereo partly drawn) [Example 41, cis-exo-7-(2R-(1R-carboxyethylaminocarbonyl)-pyrrolidinocarbonyl)-8-(1-adamantylmethylaminocarbonyl)-2,3-benzobicyclo[2.2.2]octane]: the Ki was 7.94 µM at CCKA and 5.01 µM on CCKB receptor.
With “exo-cis-7-(2-R-(3-indolyl)-1-carboxy-ethylaminocarbonyl)-8-(1-adamantylmethylaminocarbonyl)-5,6-benzobicyclo[2.2.2]oct-2-ene [Example 17]”, the “CCKA pKi” value at CCKA turned out to be 6.3. The “Gastrin pKB” value on gastrin receptors (60 min) is 6.2. The “CCKB pKi” value on CCKB receptor was determined as 6.8.
In the case of `O=C(O)CNC(=O)[C@H]1CCCN1C(=O)C1C2CCC(c3ccccc32)C1C(=O)NCC12CC3CC(CC(C3)C1)C2` (stereo partly drawn) [Example 42, cis-exo-7-(2R-carboxymethylaminocarbonyl-pyrrolidinocarbonyl)-8-(1-adamantylmethylaminocarbonyl)-2,3-benzobicyclo[2.2.2]octane], the Ki was 6.31 µM on CCKA and 3.98 µM at CCKB receptor.
